Common to all, as to type: in vivo
The test system of experiment [1] is Amaranthus retoflexus (AMARE). As to the kind of experiment: Post-emergence glasshouse herbicide test. The following applies: post-emergence (sprayed after 8 days cultivation), 1000 g/h, evaluated after 13 days, five point scale. Here is the method:
(§1) Seeds of a variety of test species are sown in standard soil in pots (Lolium perenne (LOLPE), Solanum nigrum (SOLNI), Amaranthus retoflexus (AMARE), Setaria faberi (SETFA), Echinochloa crus-galli (ECHCG), Ipomoea hederacea (IPOHE)). After cultivation for one day (pre-emergence) or after 8 days cultivation (post-emergence) under controlled conditions in a glasshouse (at 24/16° C., day/night; 14 hours light; 65% humidity), the plants are sprayed with an aqueous spray solution derived from the formulation of the technical active ingredient in acetone/water (50:50) solution containing 0.5% Tween 20 (polyoxyethelyene sorbitan monolaurate, CAS RN 9005-64-5). Compounds are applied at 1000 g/h. The test plants are then grown in a glasshouse under controlled conditions in a glasshouse (at 24/16° C., day/night; 14 hours light; 65% humidity) and watered twice daily. After 13 days for pre and post-emergence, the test is evaluated for the percentage damage caused to the plant. The biological activities are shown in the following table on a five point scale (5=80-100%; 4=60-79%; 3=40-59%; 2=20-39%; 1=0-19%).

The test system of experiment [2] is Echinochloa crus-galli (ECHCG). Kind of experiment: Post-emergence glasshouse herbicide test. Particulars: post-emergence (sprayed after 8 days cultivation), 1000 g/h, evaluated after 13 days, five point scale. Here is the method: as §1
Experiment [3] has as its system Ipomoea hederacea (IPOHE). As to the kind of experiment: Post-emergence glasshouse herbicide test. The following applies: post-emergence (sprayed after 8 days cultivation), 1000 g/h, evaluated after 13 days, five point scale. Here is the method:
as §1

The test system of experiment [4] is Lolium perenne (LOLPE). As to the kind of experiment: Post-emergence glasshouse herbicide test. The following applies: post-emergence (sprayed after 8 days cultivation), 1000 g/h, evaluated after 13 days, five point scale. Here is the method:
as §1

The subject of experiment [5] is Setaria faberi (SETFA). Kind of experiment: Post-emergence glasshouse herbicide test. Particulars: post-emergence (sprayed after 8 days cultivation), 1000 g/h, evaluated after 13 days, five point scale. Here is the method: as §1
The subject of experiment [6] is Solanum nigrum (SOLNI). As to the kind of experiment: Post-emergence glasshouse herbicide test. The following applies: post-emergence (sprayed after 8 days cultivation), 1000 g/h, evaluated after 13 days, five point scale. Here is the method: as §1
Experiment [7] relates to Amaranthus retoflexus (AMARE). As to the kind of experiment: Pre-emergence glasshouse herbicide test. Particulars: pre-emergence (sprayed after one day cultivation), 1000 g/h, evaluated after 13 days, five point scale. Here is the method: as §1
The test system of experiment [8] is Echinochloa crus-galli (ECHCG). As to the kind of experiment: Pre-emergence glasshouse herbicide test. The following applies: pre-emergence (sprayed after one day cultivation), 1000 g/h, evaluated after 13 days, five point scale. Here is the method: as §1
Experiment [9] deals with Ipomoea hederacea (IPOHE). As to the kind of experiment: Pre-emergence glasshouse herbicide test. The following applies: pre-emergence (sprayed after one day cultivation), 1000 g/h, evaluated after 13 days, five point scale. Here is the method:
as §1

The test system of experiment [10] is Lolium perenne (LOLPE). As to the kind of experiment: Pre-emergence glasshouse herbicide test. Particulars: pre-emergence (sprayed after one day cultivation), 1000 g/h, evaluated after 13 days, five point scale. Here is the method: as §1
In experiment [11] the test system is Setaria faberi (SETFA). Kind of experiment: Pre-emergence glasshouse herbicide test. Particulars: pre-emergence (sprayed after one day cultivation), 1000 g/h, evaluated after 13 days, five point scale. Here is the method: as §1
For experiment [12], the system named is Solanum nigrum (SOLNI). Kind of experiment: Pre-emergence glasshouse herbicide test. The following applies: pre-emergence (sprayed after one day cultivation), 1000 g/h, evaluated after 13 days, five point scale. Here is the method: as §1

The source of these data is patent US9701662B2, “Herbicidal compounds” (Syngenta Participations AG, priority 2014, dated 2017).

In the case of `Cn1nnnc1NC(=O)c1nn(C)c(=O)c(-c2ccc(Cl)cc2Cl)c1Cl` [Compound 1.011], the “percentage damage caused to the plant, AMARE, POST Application” value in experiment [1] is reported as 3 (3=40-59%). The “percentage damage caused to the plant, ECHCG, POST Application” value in experiment [2] was 5 (5=80-100%). Moreover, in experiment [3], the “percentage damage caused to the plant, IPOHE, POST Application” value is 4 (4=60-79%). The “percentage damage caused to the plant, LOLPE, POST Application” value in experiment [4] is given as 5 (5=80-100%). Also, the “percentage damage caused to the plant, SETFA, POST Application” value in experiment [5] is recorded as 5 (5=80-100%). The “percentage damage caused to the plant, SOLNI, POST Application” value in experiment [6] is recorded as 5 (5=80-100%). Moreover, the “percentage damage caused to the plant, AMARE, PRE Application” value in experiment [7] is reported as 5 (5=80-100%). For the same molecule, in experiment [8], the “percentage damage caused to the plant, ECHCG, PRE Application” value is listed as 5 (5=80-100%). Moreover, in experiment [9], the “percentage damage caused to the plant, IPOHE, PRE Application” value was 3 (3=40-59%). In addition, the “percentage damage caused to the plant, LOLPE, PRE Application” value in [10] is recorded as 5 (5=80-100%). Besides, the “percentage damage caused to the plant, SETFA, PRE Application” value in [11] is 5 (5=80-100%). Besides, in experiment [12], the “percentage damage caused to the plant, SOLNI, PRE Application” value is given as 5 (5=80-100%).
Consider `Cn1nnnc1NC(=O)c1nn(C)c(=O)c(-c2cccc(Cl)c2)c1Cl` [Compound 1.012], for which the “percentage damage caused to the plant, AMARE, POST Application” value in experiment [1] is on record as 5 (5=80-100%). Moreover, the “percentage damage caused to the plant, ECHCG, POST Application” value in experiment [2] was 5 (5=80-100%). In [3], the “percentage damage caused to the plant, IPOHE, POST Application” value is on record as 3 (3=40-59%). Besides, in experiment [4], the “percentage damage caused to the plant, LOLPE, POST Application” value was 5 (5=80-100%). In experiment [5], the “percentage damage caused to the plant, SETFA, POST Application” value is 4 (4=60-79%). Moreover, the “percentage damage caused to the plant, SOLNI, POST Application” value in experiment [6] is given as 5 (5=80-100%). The “percentage damage caused to the plant, AMARE, PRE Application” value in [7] is recorded as 5 (5=80-100%). For the same molecule, the “percentage damage caused to the plant, ECHCG, PRE Application” value in experiment [8] is 5 (5=80-100%). The “percentage damage caused to the plant, IPOHE, PRE Application” value in experiment [9] was 4 (4=60-79%). In [10], the “percentage damage caused to the plant, LOLPE, PRE Application” value was 5 (5=80-100%). Besides, in experiment [11], the “percentage damage caused to the plant, SETFA, PRE Application” value is recorded as 5 (5=80-100%). The “percentage damage caused to the plant, SOLNI, PRE Application” value in experiment [12] is 5 (5=80-100%).
`Cn1nnnc1NC(=O)c1nn(C)c(=O)c(-c2ccc(Cl)cc2)c1Cl` [Compound 1.013]: in experiment [1], the “percentage damage caused to the plant, AMARE, POST Application” value is recorded as 3 (3=40-59%). In addition, the “percentage damage caused to the plant, ECHCG, POST Application” value in experiment [2] was 5 (5=80-100%). Also, the “percentage damage caused to the plant, IPOHE, POST Application” value in [3] is 2 (2=20-39%). The “percentage damage caused to the plant, LOLPE, POST Application” value in experiment [4] is listed as 5 (5=80-100%). Moreover, the “percentage damage caused to the plant, SETFA, POST Application” value in experiment [5] is given as 3 (3=40-59%). Moreover, in experiment [6], the “percentage damage caused to the plant, SOLNI, POST Application” value is listed as 5 (5=80-100%). In experiment [7], the “percentage damage caused to the plant, AMARE, PRE Application” value is on record as 5 (5=80-100%). The “percentage damage caused to the plant, ECHCG, PRE Application” value in experiment [8] is 5 (5=80-100%). Also, the “percentage damage caused to the plant, IPOHE, PRE Application” value in [9] is recorded as 2 (2=20-39%). For the same molecule, in [10], the “percentage damage caused to the plant, LOLPE, PRE Application” value is reported as 5 (5=80-100%). The “percentage damage caused to the plant, SETFA, PRE Application” value in [11] is reported as 5 (5=80-100%). Also, the “percentage damage caused to the plant, SOLNI, PRE Application” value in [12] was 5 (5=80-100%).
On to `Cc1ccc(-c2c(Cl)c(C(=O)Nc3nnnn3C)nn(C)c2=O)cc1` [Compound 1.015], for which the “percentage damage caused to the plant, AMARE, POST Application” value in [1] was 5 (5=80-100%). Moreover, in experiment [2], the “percentage damage caused to the plant, ECHCG, POST Application” value is 5 (5=80-100%). Moreover, in [3], the “percentage damage caused to the plant, IPOHE, POST Application” value was 3 (3=40-59%). Further, in experiment [4], the “percentage damage caused to the plant, LOLPE, POST Application” value was 5 (5=80-100%). Moreover, in experiment [5], the “percentage damage caused to the plant, SETFA, POST Application” value is listed as 5 (5=80-100%). Also, the “percentage damage caused to the plant, SOLNI, POST Application” value in experiment [6] is listed as 5 (5=80-100%). Further, the “percentage damage caused to the plant, AMARE, PRE Application” value in [7] is recorded as 5 (5=80-100%). In addition, the “percentage damage caused to the plant, ECHCG, PRE Application” value in experiment [8] is 5 (5=80-100%). For the same molecule, the “percentage damage caused to the plant, IPOHE, PRE Application” value in [9] was 2 (2=20-39%). Also, the “percentage damage caused to the plant, LOLPE, PRE Application” value in [10] is listed as 5 (5=80-100%). The “percentage damage caused to the plant, SETFA, PRE Application” value in [11] is listed as 5 (5=80-100%). Further, in experiment [12], the “percentage damage caused to the plant, SOLNI, PRE Application” value was 5 (5=80-100%).
With `COc1ccc(-c2c(Cl)c(C(=O)Nc3nnnn3C)nn(C)c2=O)cc1` [Compound 1.016], in [1], the “percentage damage caused to the plant, AMARE, POST Application” value is given as 5 (5=80-100%). In addition, in experiment [2], the “percentage damage caused to the plant, ECHCG, POST Application” value is reported as 5 (5=80-100%). Further, in [3], the “percentage damage caused to the plant, IPOHE, POST Application” value was 4 (4=60-79%). In [4], the “percentage damage caused to the plant, LOLPE, POST Application” value is reported as 5 (5=80-100%). The “percentage damage caused to the plant, SETFA, POST Application” value in experiment [5] is 5 (5=80-100%). Moreover, the “percentage damage caused to the plant, SOLNI, POST Application” value in experiment [6] is given as 5 (5=80-100%). For the same molecule, the “percentage damage caused to the plant, AMARE, PRE Application” value in [7] is reported as 5 (5=80-100%). The “percentage damage caused to the plant, ECHCG, PRE Application” value in experiment [8] is on record as 5 (5=80-100%). In experiment [9], the “percentage damage caused to the plant, IPOHE, PRE Application” value is 1 (1=0-19%). For the same molecule, the “percentage damage caused to the plant, LOLPE, PRE Application” value in experiment [10] is 5 (5=80-100%). Moreover, the “percentage damage caused to the plant, SETFA, PRE Application” value in experiment [11] is 5 (5=80-100%). Further, the “percentage damage caused to the plant, SOLNI, PRE Application” value in [12] is listed as 5 (5=80-100%).
